Details: 323.14 K, Liquid, Vibrating tube method

CCCCCCCCCC [decane]
Details | mass density [kg/m3]
13785 kPa | 718.8
13804 kPa | 718.9
13828 kPa | 718.9
14191 kPa | 719.3
14209 kPa | 719.3
14225 kPa | 719.4
14243 kPa | 719.2
14258 kPa | 719.3
14293 kPa | 719.3
14335 kPa | 719.3
14443 kPa | 719.4
14465 kPa | 719.4
14487 kPa | 719.5
14504 kPa | 719.5
14521 kPa | 719.5
14541 kPa | 719.5
14562 kPa | 719.5
14576 kPa | 719.5
14589 kPa | 719.5
14598 kPa | 719.5
14609 kPa | 719.6
14666 kPa | 719.6
14766 kPa | 719.7
14778 kPa | 719.6
14789 kPa | 719.6
14800 kPa | 719.6
14810 kPa | 719.7
14824 kPa | 719.7
14837 kPa | 719.7
14850 kPa | 719.7
14864 kPa | 719.8
14876 kPa | 719.8
14889 kPa | 719.7
14900 kPa | 719.7
14913 kPa | 719.8
14923 kPa | 719.9
14931 kPa | 719.9
14941 kPa | 719.8
14955 kPa | 719.8
14964 kPa | 719.8
14976 kPa | 719.9
14990 kPa | 719.9
15000 kPa | 719.8
15350 kPa | 720.2
15364 kPa | 720.1
15378 kPa | 720.2
15435 kPa | 720.1
15447 kPa | 720.2
15460 kPa | 720.2
15476 kPa | 720.3
15490 kPa | 720.3
15507 kPa | 720.3
15517 kPa | 720.2
15527 kPa | 720.3
15542 kPa | 720.4
15556 kPa | 720.2
15567 kPa | 720.3
15581 kPa | 720.4
15594 kPa | 720.3
15610 kPa | 720.3
15624 kPa | 720.4
15639 kPa | 720.3
15655 kPa | 720.4
15673 kPa | 720.4
15738 kPa | 720.4
15754 kPa | 720.6
15765 kPa | 720.5
15776 kPa | 720.5
15787 kPa | 720.5
15805 kPa | 720.5
15818 kPa | 720.6
15829 kPa | 720.6
15844 kPa | 720.6
15853 kPa | 720.6
15866 kPa | 720.5
15877 kPa | 720.5
15890 kPa | 720.5
15904 kPa | 720.6
15915 kPa | 720.5
15926 kPa | 720.6
15940 kPa | 720.6
15955 kPa | 720.6
15970 kPa | 720.6
15982 kPa | 720.7
16000 kPa | 720.7
16012 kPa | 720.6
16029 kPa | 720.7
16041 kPa | 720.8
16056 kPa | 720.6
16067 kPa | 720.7
16079 kPa | 720.8
16091 kPa | 720.8
16100 kPa | 720.9
16110 kPa | 720.7
16124 kPa | 720.7
16136 kPa | 720.8
16148 kPa | 720.7
16160 kPa | 720.7
16175 kPa | 720.8
16192 kPa | 720.9
16206 kPa | 720.8
16223 kPa | 720.9
16235 kPa | 720.9
16249 kPa | 720.9
16265 kPa | 720.8
16281 kPa | 720.9
16305 kPa | 720.9
16323 kPa | 720.9
16485 kPa | 721.1
16497 kPa | 721
16509 kPa | 721.1
16526 kPa | 721
16540 kPa | 721.1
16554 kPa | 721.1
16570 kPa | 721.1
16583 kPa | 721
16614 kPa | 721.1
16658 kPa | 721.2
17010 kPa | 721.4
17025 kPa | 721.5
17272 kPa | 721.7
17288 kPa | 721.6
17305 kPa | 721.6
17323 kPa | 721.8
17337 kPa | 721.8
17350 kPa | 721.7
17369 kPa | 721.7
17387 kPa | 721.7
17405 kPa | 721.7
17419 kPa | 721.7
17442 kPa | 721.7
17455 kPa | 721.9
17473 kPa | 721.8
17491 kPa | 721.9
17510 kPa | 721.8
17532 kPa | 721.9
17546 kPa | 721.9
17561 kPa | 721.9
17579 kPa | 721.9
17593 kPa | 721.9
17612 kPa | 722
17645 kPa | 721.9
17659 kPa | 722
17677 kPa | 722
17694 kPa | 722
17715 kPa | 721.9
17731 kPa | 722
17751 kPa | 722
17772 kPa | 722
17788 kPa | 722.1
17805 kPa | 722.1
17824 kPa | 722.1
17838 kPa | 722.1
17860 kPa | 722.2
17879 kPa | 722.1
17901 kPa | 722.3
17922 kPa | 722.1
17942 kPa | 722.2
17955 kPa | 722.2
17972 kPa | 722.2
17992 kPa | 722.3
18009 kPa | 722.3
18023 kPa | 722.3
18038 kPa | 722.2
18057 kPa | 722.1
18072 kPa | 722.3
18087 kPa | 722.2
18109 kPa | 722.2
18131 kPa | 722.3
18155 kPa | 722.2
18169 kPa | 722.3
18192 kPa | 722.4
18209 kPa | 722.4
18232 kPa | 722.4
18247 kPa | 722.4
18269 kPa | 722.4
18292 kPa | 722.4
18310 kPa | 722.4
18335 kPa | 722.4
18351 kPa | 722.5
18374 kPa | 722.5
18390 kPa | 722.5
18405 kPa | 722.5
18423 kPa | 722.6
18443 kPa | 722.5
18464 kPa | 722.6
18487 kPa | 722.7
18500 kPa | 722.6
18518 kPa | 722.7
18543 kPa | 722.7
18564 kPa | 722.7
18583 kPa | 722.6
18598 kPa | 722.7
18616 kPa | 722.6
18637 kPa | 722.7
18660 kPa | 722.7
18684 kPa | 722.7
18703 kPa | 722.7
18735 kPa | 722.7
18758 kPa | 722.7
18795 kPa | 722.8
18816 kPa | 722.9
18846 kPa | 722.9
18905 kPa | 722.9
18921 kPa | 722.9
18940 kPa | 722.9
18959 kPa | 723
18983 kPa | 722.9
19005 kPa | 723.1
19027 kPa | 723
19043 kPa | 723
19062 kPa | 723.1
19263 kPa | 723.2
19308 kPa | 723.2
19354 kPa | 723.3
19373 kPa | 723.3
19390 kPa | 723.4
19410 kPa | 723.3
19436 kPa | 723.3
19461 kPa | 723.4
19485 kPa | 723.4
19509 kPa | 723.4
19574 kPa | 723.4
19594 kPa | 723.5
19637 kPa | 723.4
19655 kPa | 723.6
19672 kPa | 723.5
19720 kPa | 723.6
19741 kPa | 723.5
19760 kPa | 723.6
19777 kPa | 723.6
19795 kPa | 723.6
19813 kPa | 723.6
19840 kPa | 723.6
19867 kPa | 723.7
19891 kPa | 723.7
19912 kPa | 723.8
19936 kPa | 723.7
19957 kPa | 723.7
20009 kPa | 723.8
20031 kPa | 723.8
20049 kPa | 723.7
20080 kPa | 723.8
20105 kPa | 723.9
20127 kPa | 723.9
20154 kPa | 723.9
20176 kPa | 723.9
20191 kPa | 723.9
20210 kPa | 724
20235 kPa | 723.9
20257 kPa | 724
20286 kPa | 724
20304 kPa | 723.8
20323 kPa | 724
20345 kPa | 724
20363 kPa | 724
20389 kPa | 724.1
20431 kPa | 724.2
20462 kPa | 724
20482 kPa | 724.2
20504 kPa | 724.1
20520 kPa | 724.2
20562 kPa | 724.2
20584 kPa | 724.3
20607 kPa | 724.2
20630 kPa | 724.1
20675 kPa | 724.4
21120 kPa | 724.6
21147 kPa | 724.5
21168 kPa | 724.7
21192 kPa | 724.6
21219 kPa | 724.7
21366 kPa | 724.8

Reference: the NIST ThermoML archive (doi:10.1021/je800110r)
